According to patent US11639494B2, “Culture medium” (Vitrolife Sweden AB, priority 2015, dated 2023):

Legend:
[1] = test system: embryos; assay: Group embryo culture in 20% oxygen, blastocyst cell numbers by differential staining; type: cell-based, mice; conditions: 20% O2; for optimal dose (dose that resulted in significantly higher cell numbers): single compound
Procedure: F1 virgin hybrid female mice (C57BL/6×CBA) at 3-4 weeks old were intraperitoneally injected with 5 IU of pregnant mare's serum gonadotrophin. 48 hours later 5 IU of human chorulon gonadotrophin was administered and the female mice mated with F1 male mice >12 weeks old. Successful mating was confirmed by the presence of a vaginal mucus plug the following morning. Pronucleate oocytes were collected 22 hours after hCG injection, in pre-warmed handling medium (G-MOPS) supplemented with 5 mg/ml human sera albumin. Cumulus cells were denuded from the oocytes with GMOPS containing 300 IU/ml hyaluronidase. All embryos were washed twice in G-MOPS media and once in G-1™ medium prior to allocation for culture. Animals were housed in 12 hour light-day photoperiod with food and water available ad libitum.
Embryos were cultured in groups of 10 in 20 ul drops of media under paraffin oil in 6% CO2 in air (atmospheric oxygen ˜20%) or at 6% CO2 5% oxygen at 37° C. in a humidified multi gas incubator (Sanyo MCOK-5M[RC], Japan). Embryos were cultured in G-1™ medium (G-1™ with HSA-Solution™, Vitrolife) for 48 hours and then for a further 48 hours in G-2™ medium (G-2™ with HSA-Solution™, Vitrolife). […] All cultures were performed in 35 mm petri dishes (Falcon, BD Biosciences).
Differential staining of embryos was performed by techniques commonly known in the art to determine the allocation of cells to the inner cell mass (ICM) and trophectoderm (TE) on day 5 (e.g. in the blastocyst). Briefly, after zona removal using pronase, embryos were treated with a complement reaction which labels the in TE nuclei with propidium iodide and leaves the ICM intact and unlabelled. Following bisbenzimide treatment, all nuclei were stained. Embryos were whole-mounted in glycerol and imaged using an inverted fluorescence microscope (Nikon Eclipse TS100) fitted with a digital camera (Nikon digital sight DS-Fi1) and nuclei counted using imaging software ImageJ.
Embryos cultured in control groups were grown in G-™1 and G-2™ medium supplemented with HSA 5 mg/ml (HSA, Vitrolife). Embryos in treatment groups were similarly cultured with Acetyl Carnitine, Acetyl Cysteine or α-Lipoic acid Sigma Aldrich, USA) supplemented in the G-1™ and G-2™ medium at doses of 1, 10 and 100 μM and supplemented with HSA as the control group. […] The “total mean” means the average total number of cells in the embryo (including inner cell mass and trophectoderm) at day 5.
Embryos cultured in control groups were grown in G-1™ and G-2™ medium supplemented with HSA-Solution™ 5 mg/ml. Embryos in treatment groups were similarly cultured with 10 μM Acetyl Carnitine-10 μM Acetyl Cysteine, 10 μM Acetyl Carnitine-5 μM Lipoic acid, 10 μM Acetyl Cysteine-5 μM Lipoic acid, the triple cocktail of 10 μM Acetyl Carnitine-10 μM Acetyl Cysteine 5 μM Lipoic acid supplemented in the G-1™ and G-2™ medium and supplemented with HSA.

[2] = test system: glutathione (GSH); assay: BSO/MCB probe dosage optimisation and verification of MCB specificity to glutathione; type: cell-based, mice
Procedure: Embryos were cultured in groups of 10 in 20 ul drops of media under paraffin oil (Ovoil, Vitrolife) in 6% CO2, 20% O2 74% N2 at 37° C. in a humidified multi gas incubator (Sanyo MCOK-5M[RC], Japan). Half of the embryos were allocated to the control group and the other half to the treatment group. Control group embryos were cultured in G-1™ medium (G-1™ with HSA-Solution™, Vitrolife) […]. Treatment group embryos were likewise cultured with the optimal triple antioxidant dose supplemented in the G-1™ medium (as determined in Example 2).
Immediately after collection, pronucleate control embryos were incubated in G-1™ medium spiked with BSO at doses of 0, 50, 100, 200, 400, 800, 1600 μM for 4 hours at 6% CO2, 20% O2 74% N2 at 37° C. Embryos were rinsed thoroughly in G-1™ with HSA-Solution™ media and placed individually in 2 μl drops of GMOPS with HSA-Solution™ (G-MOPS™ Plus, Vitrolife AB, Sweden) made on glass bottom dishes (Fluorodish, Coherent Scientific, Australia) and overlayed with paraffin oil (Ovoil, Vitrolife) for fluorescence imaging. Optimal dosage was determined by recording the fluorescence at 360±40 nm/460±40 nm excitation/emission wavelengths under a fluorescence microscope (Nikon Eclipse TS100). Results were calculated by subtracting the values of blank (embryos with no BSO exposure) and basal levels of the culture media from the fluorescence recorded. […]

CC(=O)O[C@H](CC(=O)[O-])C[N+](C)(C)C [Acetyl Carnitine, acetyl-L-carnitine]
Total Mean (average total number of cells in the embryo at day 5) ([1]; 1 μM in G-1 and G-2 medium): 95.85 | Total Mean (average total number of cells in the embryo at day 5) ([1]; 10 μM in G-1 and G-2 medium): 107.83 | Total Mean (average total number of cells in the embryo at day 5) ([1]; 30 μM in G-1 and G-2 medium): 86.93 | Total Mean (average total number of cells in the embryo at day 5) ([1]; 1000 μM in G-1 and G-2 medium): 67.41 | optimal dose (dose that resulted in significantly higher cell numbers) [1]: 10 µM

O=C(O)CCCCC1CCSS1 (stereo not drawn) [lipoic acid, α-lipoic acid]
Total Mean (average total number of cells in the embryo at day 5) ([1]; 5 μM in G-1 and G-2 medium): 90.2 | Total Mean (average total number of cells in the embryo at day 5) ([1]; 10 μM in G-1 and G-2 medium): 91.3 | Total Mean (average total number of cells in the embryo at day 5) ([1]; 20 μM in G-1 and G-2 medium): 94 | Total Mean (average total number of cells in the embryo at day 5) ([1]; 80 μM in G-1 and G-2 medium): 34.0 | optimal dose (dose that resulted in significantly higher cell numbers) [1]: 5 µM

CC(=O)N[C@@H](CS)C(=O)O [Acetyl Cysteine, N-acetyl-L-cysteine]
Total Mean (average total number of cells in the embryo at day 5) ([1]; 1 μM in G-1 and G-2 medium): 81.92 | Total Mean (average total number of cells in the embryo at day 5) ([1]; 10 μM in G-1 and G-2 medium): 109.29 | Total Mean (average total number of cells in the embryo at day 5) ([1]; 30 μM in G-1 and G-2 medium): 104.38 | Total Mean (average total number of cells in the embryo at day 5) ([1]; 1000 μM in G-1 and G-2 medium): 95.17 | optimal dose (dose that resulted in significantly higher cell numbers) [1]: 10 µM

CCCCS(=N)(=O)CCC(N)C(=O)O (centres unmarked) [BSO, buthionine sulfoximine]
MCB fluorescence, BSO treated versus non-BSO treated group ([2]; 200 μM BSO, 80 μM MCB): no significant differences | MCB fluorescence compared to groups treated with MCB only ([2]; pre-treated with 200 μM BSO, then 10 μM/ml or 40 μmol/ml MCB): significantly reduced fluorescence
